Earlier results on six compounds are cited in patent US20110229584A1, “Compound for the control of herpes simplex virus using glycyrrhizic acid, lipoic acid, allantoin, and slippery elm” (priority 2010, published 2011).

For series [1], the system named is HSV.
The test system of series [2] is vesicular viomantitis.
For series [3], the system named is Epstein-Barr. The conditions noted are these: incubated with the viruses for more than 30 minutes.
Series [4] relates to HSV-2. To be noted: incubated with the viruses for more than 30 minutes.
The test system of series [5] is zoster. The conditions noted are these: incubated with the viruses for more than 30 minutes.
Series [6] concerns Newcastle's Disease.
The subject of series [7] is Herpes simplex (HSV).
For series [8], the system named is HSV-1.
In series [9] the test system is severe acute respiratory syndrome (SARS).
In series [10] the test system is vaccinia.
Series [11] has as its system human aortic endothelial cells.
The subject of series [12] is HSV-1. The conditions noted are these: applied topically to infected epidermal areas.
The subject of series [13] is HSV-1. This is another data set of the same source.

With `CCCCCCCCCCCCCCCCCCCCCCO` [Docosanol, docosanol], the “decrease of mean time of healing” value in series [1] (both treatment phases, applied early in the stages of infection) is “more than 50%”. Further, the “healing time of first episodes with treatment (average)” value in [1] (first episodes) is recorded as 5.4 days. Further, the “reduction of healing times of first episodes (average)” value in [1] (first episodes, from 7.3 days) was 1.9 days.

`CC1(C)[C@@H](O[C@H]2O[C@H](C(=O)O)[C@@H](O)[C@H](O)[C@H]2O[C@@H]2O[C@H](C(=O)O)[C@@H](O)[C@H](O)[C@H]2O)CC[C@]2(C)[C@H]3C(=O)C=C4[C@@H]5C[C@@](C)(C(=O)O)CC[C@]5(C)CC[C@@]4(C)[C@]3(C)CC[C@@H]12` [Glycyrrhizic acid]: in series [2], the “growth and cytopathic effect of vesicular viomantitis” value is recorded as “inhibit”. The “inactivation of Epstein-Barr” value in series [3] is “more than 90%”. In addition, the “inactivation of HSV-2” value in [4] was “more than 90%”. Further, the inactivation of zoster entry in [5] is given as “more than 90%”. For the same compound, in series [6], the “growth and cytopathic effect of Newcastle's Disease” value is “inhibit”. Besides, in [7], the “deactivation of HSV” value is on record as “irreversibly deactiveate”; the “growth and cytopathic effect of Herpes simplex (HSV)” value is reported as “inhibit”. Also, the “activity against in vivo HSV-1” value in series [8] (in vivo) is reported as “strong activity”. Besides, in series [8] (thermally injured mice), the “resistance of thermally injured mice to HSV-1” value is “improve”. Further, the “inhibition of severe acute respiratory syndrome (SARS)” value in series [9] is listed as “inhibit”. Besides, the “growth and cytopathic effect of vaccinia” value in series [10] is “inhibit”.

For `O=C(O)CCCCC1CCSS1` (stereo not drawn) [Lipoic acid, alpha-Lipoic acid], in series [11], the “LPS-caused expression of cellular adhesion molecules and adherence of monocytes to human aortic endothelial cells” value is listed as “inhibit”; the “LPS-triggered NF-B DNA binding activities” value was “inhibited”.

In the case of `Cl.NCCCC[C@H](N)C(=O)O` [Lysine monohydrochloride, L-Lysine Monohydrochloride], the “inactivation of HSV-1” value in [12] is listed as “not to be able to inactivate”.

Consider `Nc1nc2c(ncn2CCC(CO)CO)c(=O)[nH]1` [Penciclovir], for which the “decrease of pain duration” value in series [13] (from 4.1 days) is given as 0.6 days. Moreover, in series [13] (treated group), the “healing time of the lesions with treatment” value is on record as 4.8 days and the “pain duration with treatment” value is recorded as 3.5 days. The lesion virus shedding entry in series [13] (versus placebo) is “marginally changed”. For the same compound, the “healing of the lesions faster versus placebo” value in [13] (versus placebo 5.5 days) was 0.7 days.

On to `CC1(C)[C@@H](O)CC[C@]2(C)[C@H]3C(=O)C=C4[C@@H]5C[C@@](C)(C(=O)O)CC[C@]5(C)CC[C@@]4(C)[C@]3(C)CC[C@@H]12` [glycrrhetic acid], for which the “inhibition of severe acute respiratory syndrome (SARS)” value in series [9] was “inhibit”.
